Data reported in publication PMC5941281, “Protecting group free radical C–H trifluoromethylation of peptides” (Chemical Science, 2018).
pEC50, pIC50: −log10 of the molar value.

Legend:
[1] = biological target: human insulin receptor(B); test: Insulin Receptor Phosphorylation Assay (MSD pIR assay); format: cell-based; conditions: CHO cells stably expressing human insulin receptor(B), serum starved, 40,000 cells/well, 8 min at 37 °C, read-out: EC50 (functional assay)
[2] = biological target: human insulin receptor(B); test: Insulin Receptor Binding Assay (scintillation proximity assay); conditions: SPA, 384-well, membranes from CHO cells overexpressing human insulin receptor(B); [125I]-insulin 0.015 nM; room temperature, 1 to 12 hours
Protocol: Both the binding affinity and functional activity of 18 supported the conclusion that the A19-CF3-tyrosine–insulin maintained its structural integrity as compared with unmodified, native insulin. To further support this observation, SOFAST ^13C methyl HMQC NMR spectroscopic analysis was conducted on both 18 and native unmodified insulin.[18] […] This observation validated the notion that CF3-labeling of aromatic sidechains provides a sensitive ^19F-NMR spectroscopic probe of the local environment in complex peptides while being minimally perturbing to the overall structure of the biomacromolecule.
Insulin Receptor Binding Assays were run in a scintillation proximity assay (SPA) 384- we ll
format using cell membranes prepared from CHO cells overexpressing human insulin
receptor(B) grown in F12 media containing 10% FBS and antibiotics (G418,
Penicillin/[…]). Cell membranes were prepared in 50 mM Tris buffer, pH 7.8, containing
5 m M Mg Cl 2. The assay buffer contained 50 mM Tris buffer, pH 7.5, 150 mM NaCl, 1 mM
CaCl2, 5 mM MgCl 2, 0.1% BSA and protease inhibitors (Complete- Mi n i -Roche). Cell
membranes were added to W GA PVT PEI SPA beads (5 mg/mL f inal concentration) f ollowed by
addition of test molecules at appropriate concentrations. After 5-15 min incubation at room
temperature, [125I]- insulin was added at 0.015 nM f inal concentration f or a f inal total volume of
50 µL. […]

- pEC50 [1]: 9.40
- pIC50 [2]: 9.10
Substance: native insulin: recombinant human insulin, 21 amino acid A chain and 30 amino acid B chain linked by three disulfide bonds
